In patent US7723376B2, “2-oxo-heterocyclic compounds and pharmaceutical compositions” (Korea Research Institute of Bioscience and Biotechnology, priority 2003, dated 2010) one finds IC50 data, which are given here for 38 molecules.

In this experiment the test system is PC-3 cells. Description: Tumor cell growth inhibition, sulforhodamine B (SRB) staining. The note with it: PC-3 human prostatic carcinoma cells, 48 hrs, absorbance 540 nm, adriamycin as positive control. The experiment is classed as cell-based. Here is the method: PC-3 cells (ATCC, US), human prostatic carcinoma cell line, were cultured in RMPI 1640 supplemented with 10% fetal bovine serum.
Appropriate concentrations of cells (5×10^4 cells/ml) cultured in RMPI 1640 supplemented with 5% fetal bovine serum were poured into 96-well plate and incubated at 37° C. in 5% CO2 condition. The day after the incubation, PC-3 cells were fixed on Time zero (T0) plate by adding 50 μl/well of 50% trichloroacetic acid and the cell concentration was set to zero point by fixing the cells. In the cells treated with test samples, 50% TCA was added to each wells in 50 ul/well after 48 hrs to fix the cells. The final concentration of adding test compounds were 0.01, 0.03, 0.1, 0.3, 1 μg/ml respectively. Then, each fixed plate was washed, dried and 100 μl/well of 0.4% reaction solution containing sulforhodamine B (SRB) reagent dissolved in 0.1% acetic acid was added thereto to stain the cells. 30 minutes later, the cell was washed with 0.1% acetic acid, dried at room temperature, and 10 mM of TRIS base (pH 10.5) was added thereto to dissolve the staining agent. Finally, the absorbance detected at 540 nm was measured and the value was conversed into percentage comparing with that of control group. IC50 (μg/ml), the concentration of the group required to inhibit the cancer cell growth by 50%, was calculated from the data (AA: IC50's<1, A: IC50's<5, B: IC50's<10 and C: IC50's>10). Also, the inhibiting activity of cell growth was expressed as various symbols in accordance with the potency of examples e.g., AA: closely equivalent (1˜2 times), A: slightly weaker (3˜5 times), B: weaker (5˜10 times), C: very weaker (more than 10 times) than that of adriamycin used as a positive control group.

Structures are written as SMILES.

What is called IC50 is the concentration needed to halve the response being measured. Regarding `COc1ccc(CN2CC=C(CCC(=O)NO)C2=O)c(OC)c1` [Example 1, 3-[1-(2,4-Dimethoxybenzyl)-2-oxo-2,5-dihydro-1H-pyrrol-3-yl]-N-hydroxypropionamide], the IC50 was under 5 µg/mL.

Regarding `O=C(CCC1=CCN(CCc2ccccc2)C1=O)NO` [Example 3, N-hydroxy-3-(2-oxo-1-phenethyl-2,5-dihydro-1H-pyrrol-3-yl)-propionamide], the IC50 is under 1 µg/mL.

Turning to `Cc1ccccc1CN1CC=C(CCC(=O)NO)C1=O` [Example 6, N-hydroxy-3-[1-(2-methyl-benzyl)-2-oxo-2,5-dihydro-1H-pyrrol-3-yl]-propionamide], the IC50 is under 10 µg/mL.

With `Cc1cccc(CN2CC=C(CCC(=O)NO)C2=O)c1` [Example 7, N-hydroxy-3-[1-(3-methyl-benzyl)-2-oxo-2,5-dihydro-1H-pyrrol-3-yl]-propionamide], the IC50 is under 5 µg/mL.

The molecule `Cc1ccc(CN2CC=C(CCC(=O)NO)C2=O)cc1` [Example 8, N-hydroxy-3-[1-(4-methyl-benzyl)-2-oxo-2,5-dihydro-1H-pyrrol-3-yl]-propionamide] yielded an IC50 of under 5 µg/mL.

For `COc1ccccc1CN1CC=C(CCC(=O)NO)C1=O` [Example 9, N-hydroxy-3-[1-(2-methoxy-benzyl)-2-oxo-2,5-dihydro-1H-pyrrol-3-yl]-propionamide], the IC50 was under 5 µg/mL.

The molecule `COc1cccc(CN2CC=C(CCC(=O)NO)C2=O)c1` [Example 10, N-hydroxy-3-[1-(3-methoxy-benzyl)-2-oxo-2,5-dihydro-1H-pyrrol-3-yl]-propionamide] had an IC50 of under 1 µg/mL.

As for `COc1ccc(CN2CC=C(CCC(=O)NO)C2=O)cc1` [Example 11, N-hydroxy-3-[1-(4-methoxy-benzyl)-2-oxo-2,5-dihydro-1H-pyrrol-3-yl]-propionamide], the IC50 is under 1 µg/mL.

Take `O=C(CCC1=CCN(Cc2ccc(Br)cc2)C1=O)NO` [Example 12, 3-[1-(4-bromo-benzyl)-2-oxo-2,5-dihydro-1H-pyrrol-3-yl]-N-hydroxy-propionamide]: the IC50 is under 1 µg/mL.

`O=C(CCC1=CCN(Cc2ccc(Cl)cc2)C1=O)NO` [Example 13, 3-[1-(4-chloro-benzyl)-2-oxo-2,5-dihydro-1H-pyrrol-3-yl]-N-hydroxy-propionamide] yielded an IC50 of under 5 µg/mL.

`O=C(CCC1=CCN(Cc2ccc(OCc3ccccc3)cc2)C1=O)NO` [Example 14, 3-[1-(4-benzyloxy-benzyl)-2-oxo-2,5-dihydro-1H-pyrrol-3-yl]-N-hydroxy-propionamide]: the IC50 is under 10 µg/mL.

`COc1ccc(CN2CC=C(CCC(=O)O)C2=O)c(OC)c1` [Example 16, 3-[1-(2,4-dimethoxy-benzyl)-2-oxo-2,5-dihydro-1H-pyrrol-3-yl]-propionic acid] returned an IC50 of over 10 µg/mL.

`O=C(O)CCC1=CCN(Cc2ccccc2)C1=O` [Example 17, 3-(1-benzyl-2-oxo-2,5-dihydro-1H-pyrrol-3-yl)-propionic acid] came in with an IC50 of over 10 µg/mL.

The molecule `O=C(CCC1=CCN(Cc2ccc(NC(=O)c3ccccc3)cc2)C1=O)NO` [Example 18, N-{4-[3-(2-hydroxycarbamoyl-ethyl)-2-oxo-2,5-dihydro-pyrrole-1-yl-methyl]-phenyl}-benzamide] yielded a concentration for half-maximal inhibition (IC50) of under 10 µg/mL.

`Cc1ccc(S(=O)(=O)Nc2ccc(CN3CC=C(CCC(=O)NO)C3=O)cc2)cc1` [Example 19, N-hydroxy-3-{2-oxo-1-[4-(toluene-4-sulfonylamino)-benzyl]-2,5-dihydro-1H-pyrrol-3-yl}-propionamide] yielded an IC50 of under 10 µg/mL.

Molecule `O=C(CC1=CCN(Cc2ccccc2)C1=O)NO` [Example 20, 2-(1-benzyl-2-oxo-2,5-dihydro-1H-pyrrol-3-yl)-N-hydroxy-acetamide] registered an IC50 of over 10 µg/mL.

In turn, `COc1ccc(CN2CC=C(CC(=O)NO)C2=O)c(OC)c1` [Example 21, 2-[1-(2,4-dimethoxy-benzyl)-2-oxo-2,5-dihydro-1H-pyrrol-3-yl]-N-hydroxy-acetamide] had an IC50 of over 10 µg/mL.

`O=C(CC1=CCN(CCc2ccccc2)C1=O)NO` [Example 22, N-hydroxy-2-(2-oxo-1-phenethyl-2,5-dihydro-1H-pyrrol-3-yl)-acetamide] returned an IC50 of over 10 µg/mL.

`O=C(CC1=CCN(CCCCc2ccccc2)C1=O)NO` [Example 23, N-hydroxy-2-[2-oxo-1-(4-phenyl-butyl)-2,5-dihydro-1H-pyrrol-3-yl]-acetamide]: the IC50 was over 10 µg/mL.

`O=C(CC1=CCN(Cc2ccc(OCc3ccccc3)cc2)C1=O)NO` [Example 24, 2-[1-(4-benzyloxy-benzyl)-2-oxo-2,5-dihydro-1H-pyrrol-3-yl]-N-hydroxy-acetamide] returned an IC50 of over 10 µg/mL.

Consider `O=C(CC1CCN(Cc2ccccc2)C1=O)NO` (centres unmarked) [Example 25, 2-(1-benzyl-2-oxo-pyrrolidin-3-yl)-N-hydroxy-acetamide], for which the IC50 was over 10 µg/mL.

In the case of `COc1ccc(CN2CCC(CC(=O)NO)C2=O)c(OC)c1` (centres unmarked) [Example 26, 2-[1-(2,4-dimethoxy-benzyl)-2-oxo-pyrrolidin-3-yl]-N-hydroxy-acetamide], the IC50 was over 10 µg/mL.

Turning to `O=C(CC1CCN(CCc2ccccc2)C1=O)NO` (centres unmarked) [Example 27, N-hydroxy-2-(2-oxo-1-phenethyl-pyrrolidin-3-yl)-acetamide], the IC50 is over 10 µg/mL.

For the molecule `O=C(CCC1=CCN(CCc2ccccc2F)C1=O)NO` [Example 28, 3-{1-[2-(2-fluoro-phenyl)-ethyl]-2-oxo-2,5-dihydro-1H-pyrrol-3-yl}-N-hydroxy-propionamide], the IC50 was under 5 µg/mL.

Molecule `O=C(CCC1=CCN(CCc2cccc(F)c2)C1=O)NO` [Example 29, 3-{1-[2-(3-fluoro-phenyl)-ethyl]-2-oxo-2,5-dihydro-1H-pyrrol-3-yl}-N-hydroxy-propionamide] yielded an IC50 of under 5 µg/mL.

Consider `O=C(CCC1=CCN(CCc2ccc(F)cc2)C1=O)NO` [Example 30, 3-{1-[2-(4-fluoro-phenyl)-ethyl]-2-oxo-2,5-dihydro-1H-pyrrol-3-yl}-N-hydroxy-propionamide], for which the IC50 was under 5 µg/mL.

`O=C(CCC1=CCN(CCc2ccccc2[N+](=O)[O-])C1=O)NO` [Example 31, N-hydroxy-3-{1-[2-(2-nitro-phenyl)-ethyl]-2-oxo-2,5-dihydro-1H-pyrrol-3-yl}-propionamide] registered an IC50 of under 5 µg/mL.

Molecule `O=C(CCC1=CCN(CCc2cccc([N+](=O)[O-])c2)C1=O)NO` [Example 32, N-hydroxy-3-{1-[2-(3-nitro-phenyl)-ethyl]-2-oxo-2,5-dihydro-1H-pyrrol-3-yl}-propionamide] showed an IC50 of under 5 µg/mL.

In turn, `O=C(CCC1=CCN(CCc2ccc([N+](=O)[O-])cc2)C1=O)NO` [Example 33, N-hydroxy-3-{1-[2-(4-nitro-phenyl)-ethyl]-2-oxo-2,5-dihydro-1H-pyrrol-3-yl}-propionamide] returned an IC50 of under 5 µg/mL.

`O=C(CCC1=CCN(CCc2ccccc2Br)C1=O)NO` [Example 34, 3-{1-[2-(2-bromo-phenyl)-ethyl]-2-oxo-2,5-dihydro-1H-pyrrol-3-yl}-N-hydroxy-propionamide] gave an IC50 of under 5 µg/mL.

For the molecule `O=C(CCC1=CCN(CCc2ccc(Br)cc2)C1=O)NO` [Example 35, 3-{1-[2-(4-bromo-phenyl)-ethyl]-2-oxo-2,5-dihydro-1H-pyrrol-3-yl}-N-hydroxy-propionamide], the IC50 was under 5 µg/mL.

`COc1ccccc1CCN1CC=C(CCC(=O)NO)C1=O` [Example 36, N-hydroxy-3-{1-[2-(2-methoxy-phenyl)-ethyl]-2-oxo-2,5-dihydro-1H-pyrrol-3-yl}-propionamide] came in with an IC50 of under 5 µg/mL.

The molecule `COc1cccc(CCN2CC=C(CCC(=O)NO)C2=O)c1` [Example 37, N-hydroxy-3-{1-[2-(3-methoxy-phenyl)-ethyl]-2-oxo-2,5-dihydro-1H-pyrrol-3-yl}-propionamide] had an IC50 of under 5 µg/mL.

`COc1ccc(CCN2CC=C(CCC(=O)NO)C2=O)cc1` [Example 38, N-hydroxy-3-{1-[2-(4-methoxy-phenyl)-ethyl]-2-oxo-2,5-dihydro-1H-pyrrol-3-yl}-propionamide] gave an IC50 of under 5 µg/mL.

`Cc1ccc(CCN2CC=C(CCC(=O)NO)C2=O)cc1` [Example 39, N-hydroxy-3-[2-oxo-1-(2-p-tolyl-ethyl)-2,5-dihydro-1H-pyrrol-3-yl]-propionamide] gave an IC50 of under 5 µg/mL.

Consider `Cc1ccc(CCCN2CC=C(CCC(=O)NO)C2=O)cc1` [Example 40, N-hydroxy-3-[2-oxo-1-(3-p-tolyl-propyl)-2,5-dihydro-1H-pyrrol-3-yl]-propionamide], for which the IC50 is under 5 µg/mL.

`Cc1ccccc1CCCN1CC=C(CCC(=O)NO)C1=O` [Example 41, N-hydroxy-3-[2-oxo-1-(3-o-tolyl-propyl)-2,5-dihydro-1H-pyrrol-3-yl]-propionamide] came in with a 50% inhibitory concentration (IC50) of under 10 µg/mL.

For `Cc1cccc(CCCN2CC=C(CCC(=O)NO)C2=O)c1` [Example 42, N-hydroxy-3-[2-oxo-1-(3-m-tolyl-propyl)-2,5-dihydro-1H-pyrrol-3-yl]-propionamide], the IC50 was under 1 µg/mL.
